From PubChem BioAssay AID1418 (Emory University Molecular Libraries Screening Center, 2008)
The source made the active and inactive calls. The rule behind the calls is not given here.

Biological target: Induced myeloid leukemia cell differentiation protein Mcl-1 (Homo sapiens) (UniProt Q07820)
Assay: blockers of Bid binding to Mcl-1 – biochemical, TR-FRET, dose response (AID 1418)
Conditions: Mcl-1/Bid peptide binding, TR-FRET (europium/Dy647), 2 hr

Induced myeloid leukemia cell differentiation protein Mcl-1 (Homo sapiens), sequence (Q07820 whole entry, looked up): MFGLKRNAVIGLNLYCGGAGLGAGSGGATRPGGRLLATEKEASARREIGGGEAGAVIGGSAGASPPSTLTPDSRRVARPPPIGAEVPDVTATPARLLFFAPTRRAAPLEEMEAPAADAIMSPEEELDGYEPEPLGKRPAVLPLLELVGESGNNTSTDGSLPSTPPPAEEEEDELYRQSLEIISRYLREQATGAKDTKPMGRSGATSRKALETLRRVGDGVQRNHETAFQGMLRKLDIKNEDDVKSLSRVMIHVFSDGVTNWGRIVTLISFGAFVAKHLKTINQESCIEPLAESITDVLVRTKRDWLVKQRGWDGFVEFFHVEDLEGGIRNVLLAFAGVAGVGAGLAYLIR

SMILES	IC50
CC1CCCC(C)N1CCNC(=O)C1CCN(S(=O)(=O)N2CCCCC2)CC1 (stereo unspecified)	> 54 µM (inactive)
Cc1ccc(S(=O)(=O)N(CC(=O)N/N=C/c2cccc(Cl)c2)c2cccc3cccnc23)cc1	> 54 µM (inactive)
O=C1C(=Cc2cccn2-c2ccc(O)cc2)C(=O)c2ccccc21	2.53 µM
N#Cc1cccc(NC(=O)CSc2ccc3c4c(cccc24)C(=O)c2ccccc2-3)c1	2.65 µM
CCc1cc(=O)oc2cc3occ(-c4ccc(OC)c(F)c4)c3cc12	> 54 µM (inactive)
CCN(CC)C(=O)COC(=O)c1cc(-c2ccc(OC)cc2)nc2ccccc12	> 54 µM (inactive)
Cc1ccc(COc2ccc(C(=O)NN)cc2)cc1	> 54 µM (inactive)
CCOC(=O)NC(=O)/C(C#N)=C/c1ccc(N(C)C)cc1	> 54 µM (inactive)
COc1ccc(NC(=O)CN2CCOCC2)cc1	> 54 µM (inactive)
CC(=O)c1cccc(NC(=O)C2CCN(C(=O)c3ccc([N+](=O)[O-])cc3)CC2)c1	> 54 µM (inactive)
O=C(N/N=C/c1cccc([N+](=O)[O-])c1)c1cc2c(ccc3ccccc32)o1	1.64 µM
COc1ccc(N/C=C2\C(=O)CCc3c2oc2cc(Cl)c(O)c(Cl)c32)cc1	0.79 µM
O=C(ONc1ccc(N=NC(=O)c2ccccc2O)cc1)c1ccccc1	inactive
CCn1c(C)cc(/C=C2/NC(=O)N(CC(=O)Nc3cccc(C)c3)C2=O)c1C	3.19 µM
O=C(Cn1c(C(F)(F)F)nc2ccccc21)c1ccc(F)cc1	> 54 µM (inactive)
O=c1c2ccccc2nc(/C=C/c2cccnc2)n1Cc1ccccc1	0.54 µM
CC(NCc1ccc2c(c1)OCO2)C(=O)NC1CCCc2ccccc21 (stereo unspecified)	> 54 µM (inactive)
CN(CCN(C)C(C)(C)C)C(=O)C(c1ccccc1)c1ccccc1	> 54 µM (inactive)
COc1ccc(CN2C(=O)c3cccnc3C2O)cc1 (stereo unspecified)	0.71 µM
Cc1sc(NC(=O)c2cc(-c3ccc(Cl)cc3)nc3ccccc23)c(C(N)=O)c1C	0.92 µM
CCN(CC)c1ccc(/C=N/Nc2cccc(C)c2)c(O)c1	> 54 µM (inactive)
CCCC(=O)Nc1nnc(-c2cccc(OCC)c2)s1	> 54 µM (inactive)
CCOc1ccc(N=C2NC(=O)S/C2=C\c2ccc(O)cc2)cc1	0.84 µM
O=C(Nc1cccc(Cl)c1)c1cc(N=Nc2ccc([N+](=O)[O-])cc2Cl)ccc1O	4.18 µM

SMILES	IC50
Cc1cc(NS(=O)(=O)c2ccc(NC(NC(=O)C(C(F)(F)F)C(F)(F)F)(C(F)(F)F)C(F)(F)F)cc2)no1	1.62 µM
O=C(O)c1cccc(-n2cccc2/C=C2/NC(=O)N(c3ccc(Cl)cc3)C2=O)c1	0.53 µM
CCOC(=O)Nc1ccc2c(c1)N(C(=O)OCCN(C)C)c1ccccc1CC2	> 54 µM (inactive)
C#CCOCCOCCOCCNc1nc(N2CCN(C(=O)[C@H](CCC(=O)O)n3cc(C(N)CC(C)C)nn3)CC2)nc(N2CCN(C(=O)[C@H](CCC(=O)O)n3cc(C(N)[C@H](C)CC)nn3)CC2)n1 (stereo partly specified)	1 µM
O=C1/C(=C/C=C/c2ccco2)SC(=S)N1NS(=O)(=O)c1ccccc1	2.31 µM
COc1cc2c(cc1OC)CN(CC(=O)Nc1ccc(C#N)cc1)CC2	> 54 µM (inactive)
Fc1cc(F)c2nc(Nc3nc4cc5c(cc4s3)OCO5)sc2c1	0.59 µM
COc1ccc(C2CC(c3ccccc3)Nc3nc(N)nn32)cc1 (stereo unspecified)	> 54 µM (inactive)
O=C(CSc1nc(-c2ccccc2)nc2c1Cc1ccccc1O2)Nc1ccc(C(=O)O)cc1	3.03 µM
CC1CC(C)CN(CCOCCSc2ccccc2)C1 (stereo unspecified)	> 54 µM (inactive)
NC(=S)n1[nH]c(-c2ccc([N+](=O)[O-])cc2)c(N=Nc2ccccc2[N+](=O)[O-])c1=O	3.26 µM
COc1ccc(-c2csc(NC(=S)NC(=O)/C=C/c3ccco3)n2)cc1OC	> 54 µM (inactive)
CN1C(=O)/C(=C2\SC(=S)N(CCCCCC(=O)O)C2=O)c2ccccc21	29.4 µM
Cc1ccc(NC(=O)c2ccc3ncsc3c2)cc1S(=O)(=O)N(C)C	inactive
CN(C)S(=O)(=O)c1cccc(-c2nn(-c3ccccc3)cc2/C=C2\SC(=S)NC2=O)c1	9.99 µM
COc1ccc(N/C(=C(/C(Cl)=C(Cl)Cl)[N+](=O)[O-])n2nnc3ccccc32)cc1OC	> 54 µM (inactive)
COc1ccc(CN2C(=O)c3cccnc3C2Nc2cc(Cl)c(OC)cc2OC)cc1 (stereo unspecified)	0.84 µM
O=C(N[C@@H](Cc1ccccc1)C(=O)O)c1ccncc1	> 54 µM (inactive)
O=C(NC(Cc1ccccc1)C(=O)O)c1ccc(S(=O)(=O)N2CCCCC2)cc1 (stereo unspecified)	> 54 µM (inactive)
Cc1ccc(-c2cn(-c3ccccc3)c(SCC(N)=O)n2)cc1C	> 54 µM (inactive)
CN(C)c1ccc(/C=c2\sc3nc(-c4ccccc4)nn3c2=O)cc1	5.15 µM
CC(Sc1nnc2c(n1)C1CCC2(C)C1(C)C)C(=O)Nc1ccccc1 (stereo unspecified)	> 54 µM (inactive)
COc1ccc(Cl)cc1C(Nc1cccnc1)c1ccc2cccnc2c1O (stereo unspecified)	0.62 µM
CC(=O)c1c(N=CN(C)C)nc(C)nc1-c1ccccc1	> 54 µM (inactive)

SMILES	IC50
CN(CCOC(=O)C1c2ccccc2Oc2ccccc21)C(C)(C)C	> 54 µM (inactive)
CCOC(=O)C1CCCN(c2c(N3CCN(c4cccc(Cl)c4)CC3)c(=O)c2=O)C1 (stereo unspecified)	> 54 µM (inactive)
S=C(NNc1ccnc2cc(Cl)ccc12)Nc1ccc(Cl)cc1Cl	2.22 µM
Cc1ccc(S(=O)(=O)N2CCOCC2)cc1C(=O)N1C(=O)c2cccc(N)c2C1=O	> 54 µM (inactive)
COc1ccc(C(=O)N(Cc2ccccc2)Cc2cc3cc4c(cc3[nH]c2=O)OCCO4)cc1	> 54 µM (inactive)
Cc1cc(C)cc(N(CC(=O)NC2CCC(C)CC2)S(=O)(=O)c2c(C)noc2C)c1 (stereo unspecified)	> 54 µM (inactive)
O=C(CSc1cccc[n+]1[O-])Nc1cc2c(cc1Cl)C(=O)c1ccccc1C2=O	9.39 µM
C=CS(=O)(=O)c1sc(Cl)c(N2CCOCC2)c1[N+](=O)[O-]	1.77 µM
CCC(CC)C(=O)Oc1c(Sc2ccccc2[N+](=O)[O-])c(C)nn1C(C)(C)C	> 54 µM (inactive)
COc1cc(/C=C(/C#N)c2nc3ccccc3c(=O)[nH]2)ccc1O	1.15 µM
CNc1ccc(Br)cc(C(=O)/C=C/c2cccc(Cl)c2Cl)c1=O	3.46 µM
N/C(CS(=O)(=O)c1ccc(F)cc1)=N\O	> 54 µM (inactive)
Cc1ccc(NC(=O)CN2C(=O)/C(=C3\SC(=S)N(C4CCS(=O)(=O)C4)C3=O)c3ccccc32)cc1 (stereo unspecified)	0.54 µM
C#Cc1ccc([C@@H]2C=C(C(=O)N3CCN(Cc4ccc5c(c4)OCO5)CC3)O[C@H](OCCCCO)C2)cc1	> 54 µM (inactive)
COc1ccc(-n2cccc2/C=C2\C(=N)N3N=C(c4ccco4)SC3=NC2=O)cc1	3.22 µM
O=C(CSc1nccc(=O)[nH]1)c1ccccc1Br	> 54 µM (inactive)
CN1C(=O)/C(=C/c2ccccc2OCc2cccc(F)c2)NC1=S	> 54 µM (inactive)
O=C(CNC(=O)c1ccc([N+](=O)[O-])cc1)N/N=C\c1ccc(OC(=O)c2ccccc2)cc1	11 µM
CC1C(c2ccccc2)N(C)CCC12NC(=O)NC2=O (stereo unspecified)	> 54 µM (inactive)
O=C(/C=C\Nc1ccc(S(=O)(=O)Nc2ncccn2)cc1)c1cccc2ccccc12	> 54 µM (inactive)
CC(/C=C1\SC(=S)N(CCCC(=O)Nc2ccc(C(=O)O)c(O)c2)C1=O)=C\c1ccccc1	3.49 µM
C#CCOCCOCCOCCNc1nc(N2CCN(C(=O)[C@H](Cc3ccc(O)cc3)n3cc([C@@H](N)C(C)CC)nn3)CC2)nc(N2CCN(C(=O)[C@H](Cc3cc4ccccc4[nH]3)n3cc([C@@H](N)C(C)CC)nn3)CC2)n1 (stereo partly specified)	0.82 µM
COc1ccccc1C1C2=C(N=c3s/c(=C/c4cccc(OCC(=O)O)c4)c(=O)n31)c1ccccc1CC2 (stereo unspecified)	11.2 µM
O=c1/c(=C\c2cc([N+](=O)[O-])cc([N+](=O)[O-])c2O)sc2nc3ccccc3n12	1.07 µM

SMILES	IC50
Cc1cccc(C)c1NC(=O)C1c2ccccc2Oc2ccccc21	> 54 µM (inactive)
O=C(O)COc1ccc(/C=N/NC(=O)c2ccc(-c3csc(Nc4ccc(Cl)cc4)n3)cc2)cc1	1.43 µM
CCCOP(=O)(OCCC)C(NC(=O)c1ccccc1)=C(Cl)Cl	0.53 µM
O=C(NCC1CCCO1)c1cc([N+](=O)[O-])ccc1Cl (stereo unspecified)	> 54 µM (inactive)
CCCc1cc(=O)[nH]c(SCC(=O)c2c(C)[nH]c3ccccc23)n1	> 54 µM (inactive)
COc1ccccc1OCCOc1ccc(/C=C2/C(=N)N3OC(C)=CC3=NC2=O)cc1OC	0.56 µM
CCn1c(-c2cccc(Br)c2)n[nH]c1=S	> 54 µM (inactive)
CCN(CCNC(=O)CN1CCN(Cc2ccc(Cl)cc2)C1=O)c1ccccc1	> 54 µM (inactive)
Cc1cc(=O)[nH]c(SCC(=O)c2ccc3c(c2)NC(=O)CO3)n1	> 54 µM (inactive)
CC(=O)Cc1nsc(NC(=O)c2ccc(-c3cc(C(F)(F)F)ccc3Cl)o2)n1	> 54 µM (inactive)
CN1C(=O)C(=Cc2sc(=O)n(-c3ccccc3)c2N2CCCCC2)C(=O)N(C)C1=O	> 54 µM (inactive)
N=c1cc(C2(O)CCCCC2)n2c(nc3ccccc32)s1	> 54 µM (inactive)
O=C(NCCc1ccccc1)C1CCN(S(=O)(=O)c2ccc(-c3nn[nH]n3)cc2)CC1	> 54 µM (inactive)
Cn1c(SCc2nc3ccccc3s2)nnc1-c1ccc2c(c1)OCO2	> 54 µM (inactive)
C=CCn1c(SCc2ccc([N+](=O)[O-])cc2)nnc1C(C)NC(=O)c1ccccc1 (stereo unspecified)	> 54 µM (inactive)
N=C1/C(=C\c2ccc(-c3cccc(C(=O)O)c3)o2)C(=O)N=C2SC=C(c3ccccc3)N12	4.64 µM
COc1ccc(-n2cc(-c3ccc(OC(F)F)cc3)[n+]3c2CCCCC3)cc1	> 54 µM (inactive)
CN(C)CC(O)CN(c1ccccc1)c1ccccc1 (stereo unspecified)	> 54 µM (inactive)
COc1ccccc1CNC(=O)CC(NS(=O)(=O)c1ccc(C)cc1)c1ccco1 (stereo unspecified)	> 54 µM (inactive)
Cc1nc2c(-c3ccc(Cl)cc3)cnn2c2c1CCC2	> 54 µM (inactive)
COc1cccc(NC(=O)CSc2nc3ccccc3n2C)c1	> 54 µM (inactive)
O=C(O)Cn1cnc2c(=S)nc[nH]c21	> 54 µM (inactive)
CSc1ccccc1NC(=O)CNCCCN1CCOCC1	> 54 µM (inactive)
C=CCOC(=O)/C=C/C(=O)NC(N)=O	> 54 µM (inactive)
